Usually IC50 stands for the concentration that gives 50% inhibition.

Each structure is given as a SMILES string. Like-named read-outs stand apart in the source and are kept apart here.

The experiment addresses T1, HDM2 (Homo sapiens, UniProt Q00987).
T1 construct: Thioredoxin (N); made in house; host or cells: E. coli strain BL21(DE3)Rosetta
The experiment in a line: HDM2 FRET assay (inhibition of binding of FITC labeled p53-pocket peptide to HDM2). Conditions: read-out: FRET IC50. The essentials:
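Compounds were tested in 10-point serial dilution against 0.5 nM recombinant HDM2 binding 3 nM fluorescein-labeled p53-pocket peptide. Detection used 0.25 nM terbium cryptate anti-6xHis antibody in PBS buffer containing 0.01% BSA and 0.01% Tween-20.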

[1] abbreviates: 0.5 nM HDM2 (residues 17 to 125), 3nM peptide, two hour incubation at room temperature.

T1 sequence (Q00987 17-125): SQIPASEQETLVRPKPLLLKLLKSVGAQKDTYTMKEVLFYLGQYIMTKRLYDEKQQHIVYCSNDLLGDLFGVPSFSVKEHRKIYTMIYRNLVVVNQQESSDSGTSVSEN

In the case of `C[C@H]1CC[C@H](Cn2c(N3CCOC[C@H]3c3ccccc3)nc3nc(-c4noc(=O)[nH]4)nc(-n4cc(Cl)ccc4=O)c32)CC1` [Example 25.1, 5-chloro-1-{7-[(trans-4-methylcyclohexyl)methyl]-2-(5-oxo-4,5-dihydro-1,2,4-oxadiazol-3-yl)-8-[(3R)-3-phenylmorpholin-4-yl]-7H-purin-6-yl}pyridin-2(1H)-one], for the setting “Table 25”, the IC50 turned out to be 1.01 nM.

`C[C@@H](Nc1nc(-c2noc(=O)[nH]2)nc2nc(N3CCCCC34CC4)n(Cc3ccc(C(F)(F)F)cc3)c12)C1CCC1` [Example 9.85, 3-{8-(4-azaspiro[2.5]oct-4-yl)-6-{[(1R)-1-cyclobutylethyl]amino}-7-[4-(trifluoromethyl)benzyl]-7H-purin-2-yl}-1,2,4-oxadiazol-5(4H)-one]: the IC50 (Table 9) was determined as 9.84 nM.

On to `Cc1cccc(-c2nc3nc(C(=O)O)nc(NC(C)C(C)(C)O)c3n2Cc2ccc(C(F)(F)F)cc2)c1` (centres unmarked) [Example 6.39, 6-[(2-hydroxy-1,2-dimethylpropyl)amino]-8-(3-methylphenyl)-7-[4-(trifluoromethyl)benzyl]-7H-purine-2-carboxylic acid], for which, where the note is “Table 6”, the 50% inhibitory concentration (IC50) was 2260 nM.

As for `CCC[C@@H](Nc1nc(C(=O)O)nc2nc(-c3cccc(C)c3)n(Cc3ccc(C(F)(F)F)cc3)c12)C1CCC1` [Example 7.5, 6-{[(1R)-1-cyclobutylbutyl]amino}-8-(3-methylphenyl)-7-[4-(trifluoromethyl)benzyl]-7H-purine-2-carboxylic acid], the IC50 (Table 7) was 142 nM.

Regarding `C[C@@H](Nc1nc(-c2noc(=O)[nH]2)nc2nc(N3CCOCC3c3ccccc3Cl)n(C[C@H]3CC[C@H](C)CC3)c12)C1CCC1` (stereo partly drawn) [Example 11.100, 3-{8-[3-(2-chlorophenyl)morpholin-4-yl]-6-{[(1R)-1-cyclobutylethyl]amino}-7-[(trans-4-methylcyclohexyl)methyl]-7H-purin-2-yl}-1,2,4-oxadiazol-5(4H)-one], the IC50 (Table 11) was found to be 0.936 nM.

`CCN(c1nc(-c2noc(=O)[nH]2)nc2nc(-c3cc(C(C)C)ccn3)n(C[C@H]3CC[C@H](C)CC3)c12)[C@H](C)C1CCC1` [Example 15.24, 3-(6-{[(1R)-1-cyclobutylethyl](ethyl)amino}-7-[(trans-4-methylcyclohexyl)methyl]-8-[4-(1-methylethyl)pyridin-2-yl]-7H-purin-2-yl)-1,2,4-oxadiazol-5(4H)-one]: the IC50 under setting [1] worked out at 716 nM.

For `CC([C@H]1CC[C@H](C)CC1)n1c(N2CCC[C@H]2CF)nc2nc(-c3n[nH]c(=O)o3)nc(-c3cncc(Cl)c3)c21` (single isomer, unassigned) [Example 18.48], for the setting “Table 18”, the IC50 is 8.12 nM.

Take `C[C@@H](Nc1nc(C(=O)O)nc2nc(C(=O)NCc3ccccc3)n(Cc3ccc(C(F)(F)F)cc3)c12)C1CCC1` [Example 10.18, (R)-8-(Benzylcarbamoyl)-6-((1-cyclobutylethyl)amino)-7-(4-(trifluoromethyl)benzyl)-7H-purine-2-carboxylic acid]: the IC50 (Table 10) came out at 58.9 nM.

As to `Cc1cccc(-c2nc3nc(C(=O)O)nc(NCCc4ccccc4)c3n2Cc2ccc(C(F)(F)F)cc2)c1` [Example 6.25, 8-(3-methylphenyl)-6-[(2-phenylethyl)amino]-7-[4-(trifluoromethyl)benzyl]-7H-purine-2-carboxylic acid], the IC50 (Table 6) stood at 5080 nM.

Turning to `CC(c1nc2nc(C(=O)O)nc(N[C@H](C)C3CCC3)c2n1Cc1ccc(C(F)(F)F)cc1)N(C)Cc1ccccc1` (stereo partly drawn) [Example 10.12, 8-(1-(benzyl(methyl)amino)ethyl)-6-(((R)-1-cyclobutylethyl)amino)-7-(4-(trifluoromethyl)benzyl)-7H-purine-2-carboxylic acid], where the note is “Table 10”, the IC50 amounted to 139 nM.

For `C[C@@H](Nc1nc(C(=O)O)nc2nc(N3CCCCC3)n(Cc3ccc(C(F)(F)F)cc3)c12)C1CCC1` [Example 9.11, 6-{[(1R)-1-cyclobutylethyl]amino}-8-piperidin-1-yl-7-[4-(trifluoromethyl)benzyl]-7H-purine-2-carboxylic acid], the IC50 (Table 9) was 17.6 nM.

Take `C[C@@H](Nc1nc(-c2noc(=O)[nH]2)nc2nc(C(C)(F)c3ccccc3)n(C[C@H]3CC[C@H](C)CC3)c12)C1CCC1` (single isomer, unassigned) [Example 22.78]: the IC50 (Table 22) was 12.3 nM.

For the compound `COCC1CCCCN1c1nc2nc(-c3noc(=O)[nH]3)nc(N[C@H](C)C3CCC3)c2n1C[C@H]1CC[C@H](C)CC1` (stereo partly drawn) [Example 11.39, 3-(6-{[(1R)-1-cyclobutylethyl]amino}-8-[2-(methoxymethyl)piperidin-1-yl]-7-[(trans-4-methylcyclohexyl)methyl]-7H-purin-2-yl)-1,2,4-oxadiazol-5(2H)-one], the IC50 (Table 11) was 9.71 nM.

With `C[C@@H](Nc1nc(-c2noc(=O)[nH]2)nc2nc(C(=O)C3CCOCC3)n(C[C@H]3CC[C@H](C)CC3)c12)C1CCC1` [Example 22.31, 3-[6-{[(1R)-1-cyclobutylethyl]amino}-7-[(trans-4-methylcyclohexyl)methyl] -8-(tetrahydro-2H-pyran-4-ylcarbonyl)-7H-purin-2-yl]-1,2,4-oxadiazol-5(4H)-one], under “Table 22”, the IC50 came out at 6.45 nM.

As to `C[C@@H](Nc1nc(-c2noc(=O)[nH]2)nc2nc(C(=O)c3ccccc3)n(C[C@H]3CC[C@H](C)CC3)c12)C1CCC1` [Example 22.21, 3-[6-{[(1R)-1-cyclobutylethyl]amino}-7-[(trans-4-methylcyclohexyl)methyl]-8-(phenylcarbonyl)-7H-purin-2-yl]-1,2,4-oxadiazol-5(4H)-one], the half-maximal inhibitory concentration (IC50) (Table 22) turned out to be 1 nM.

With `C[C@@H](Nc1nc(-c2noc(=O)[nH]2)nc2nc(N(C)Cc3cnn(C)c3)n(C[C@H]3CC[C@H](C)CC3)c12)C1CCC1` [Example 11.71, 3-(6-{[(1R)-1-cyclobutylethyl]amino}-7-[(trans-4-methylcyclohexyl)methyl]-8-{methyl[(1-methyl-1H-pyrazol-4-yl)methyl]amino}-7H-purin-2-yl)-1,2,4-oxadiazol-5(2H)-one], the IC50 (Table 11) is 24.3 nM.

Regarding `C[C@@H](Nc1nc([S+](C)[O-])nc2nc(N3CCOC[C@H]3c3ccccc3)n(C[C@H]3CC[C@H](C)CC3)c12)C1CCC1` (single isomer, unassigned) [Example 14.3], the IC50 under setting [1] worked out at 57.4 nM.

With `Cc1cccc(-c2nc3nc(C(=O)O)nc(N[C@H](C)c4ccccc4)c3n2Cc2ccc(C(F)(F)F)cc2)c1` [Example 6.30, 8-(3-methylphenyl)-6-{[(1R)-1-phenylethyl]amino}-7-[4-(trifluoromethyl)benzyl]-7H-purine-2-carboxylic acid], the IC50 (Table 6) was 1490 nM.

In the case of `Cc1cccc(-c2nc3ncnc(N4CCC[C@@H]4C4CCC4)c3n2Cc2ccc(C(F)(F)F)cc2)c1` [Example 7.9, 6-[(2R)-2-cyclobutylpyrrolidin-1-yl]-8-(3-methylphenyl)-7-[4-(trifluoromethyl)benzyl]-7H-purine], the IC50 (Table 7) turned out to be 4480 nM.

For the compound `C[C@H]1CC[C@H](Cn2c(N3CCOCC34CCC4)nc3nc(-c4n[nH]c(=O)o4)nc(-c4cccc(Cl)c4)c32)CC1` [Example 16.89, 5-[6-(3-chlorophenyl)-7-[(trans-4-methylcyclohexyl)methyl]-8-(8-oxa-5-azaspiro[3.5]non-5-yl)-7H-purin-2-yl]-1,3,4-oxadiazol-2(3H)-one], the IC50 under setting [1] is 25 nM.

For `Cc1cccc(-c2nc(-c3n[nH]c(=O)o3)nc3nc(N4CCOC[C@H]4C)n(C[C@H]4CC[C@H](C)CC4)c23)c1` [Example 16.32, 5-{7-[(trans-4-methylcyclohexyl)methyl]-8-[(3R)-3-methylmorpholin-4-yl]-6-(3-methylphenyl)-7H-purin-2-yl} -1,3,4-oxadiazol-2(3H)-one], the IC50 under setting [1] was 60.5 nM.

For the compound `C[C@@H](Nc1nc(C(=O)O)nc2nc(N3CCOC(C(F)(F)F)C3)n(Cc3ccc(C(F)(F)F)cc3)c12)C1CCC1` (stereo partly drawn) [Example 9.23, 6-{[(1R)-1-cyclobutylethyl]amino}-7-[4-(trifluoromethyl)benzyl]-8-[2-(trifluoromethyl)morpholin-4-yl]-7H-purine-2-carboxylic acid], the IC50 (Table 9) turned out to be 25.2 nM.

For the compound `CC1CCCCN1c1nc2nc(-c3noc(=O)[nH]3)nc(N[C@H](C)C3CCC3)c2n1Cc1ccc(C(F)(F)F)cc1` (stereo partly drawn) [Example 9.110, 3-(6-{[(1R)-1-cyclobutylethyl]amino}-8-(2-methylpiperidin-1-yl)-7-[4-(trifluoromethyl)benzyl]-7H-purin-2-yl)-1,2,4-oxadiazol-5(4H)-one], the IC50 (Table 9) is 10.3 nM.

As to `C[C@@H](Nc1nc(-c2noc(=O)[nH]2)nc2nc(C(O)c3ccccc3)n(C[C@H]3CC[C@H](C)CC3)c12)C1CCC1` (stereo partly drawn) [Example 22.29, 3-(6-{[(1R)-1-cyclobutylethyl]amino}-8-[hydroxy(phenyl)methyl]-7-[(trans-4-methylcyclohexyl)methyl] -7H-purin-2-yl)-1,2,4-oxadiazol-5(4H)-one], where the note is “Table 22”, the IC50 came to 1.66 nM.

Turning to `CC(C)c1ccnc(-c2nc3nc(C(=O)O)nc(N[C@H](C)C4CCC4)c3n2Cc2ccc(C(F)(F)F)cc2N)c1` [Example 8.1, 7-[2-amino-4-(trifluoromethyl)benzyl]-6-{[(1R)-1-cyclobutylethyl]amino}-8-[4-(propan-2-yl)pyridin-2-yl]-7H-purine-2-carboxylic acid], the IC50 (Table 8) amounted to 1.62 nM.

As for `COc1ncc(Cl)cc1-c1nc(-c2noc(=O)[nH]2)nc2nc(C3(c4ccccc4)CCC3)n(C[C@H]3CC[C@H](C)CC3)c12` [Example 20.14, 3-[6-(5-chloro-2-methoxypyridin-3-yl)-7-[(trans-4-methylcyclohexyl)methyl]-8-(1-phenylcyclobutyl)-7H-purin-2-yl]-1,2,4-oxadiazol-5(4H)-one], the IC50 (Table 20) came to 6.11 nM.

Source of the values: patent publication EP2951180B1, “2,6,7,8 SUBSTITUTED PURINES AS HDM2 INHIBITORS” (Merck Sharp & Dohme Corp., priority 2013, dated 2014).
